Test systems include CCRF-CEM; MCF7; SR; M14; SK-MEL-2; SK-MEL-5; CAKI-1; Malme-3M; RPMI-8226; OVCAR-8; NCI-H23; HT-29; DU-145; COLO 205; SNB-19; EKVX; ACHN; SF-268; LOX IMVI; HCC 2998.
Holding throughout (test): DTP human tumour cell line panel, 48 h

The structures appear in SMILES notation. Values joined by “and” are separate entries in the source; they are usually repeats but may differ in a detail not shown here. Identical values can stand only once.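 Five concentrations, 48 hours, 96-well plates. Abbreviation: GI50, concentration required for 50% inhibition of growth.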 Active and inactive are the calls of the source. Rule as the data show it: active = GI50 up to about 1.1 µM and inactive = higher. Square brackets hold non-standard residues; d marks the D form. Peptide text beside a SMILES is read from it. * marks the point of attachment. Tyr(3-Br) = N[C@@H](Cc1ccc(O)c(Br)c1)C(=O)O; Boc = CC(C)(C)OC(=O)*

For `N#C[BH2-][n+]1ccc(C(=O)NNC(c2ccccc2)C(F)(F)F)cc1` (stereo not drawn), the GI50 with CCRF-CEM, in the assay on MCF7, in the assay with SR, in the assay with M14, in the assay on SK-MEL-2 and with SK-MEL-5 was > 100 µM (inactive) in each case. Moreover, the GI50 in the assay with CAKI-1 was > 100 µM (inactive); with Malme-3M, > 100 µM (inactive); in the assay with RPMI-8226, > 100 µM (inactive); in the assay on OVCAR-8 it was > 100 µM (inactive); in the assay with NCI-H23, 31.7 µM (inactive); in the assay with HT-29, > 100 µM (inactive). In addition, the GI50 in the assay with DU-145, with COLO 205, with SNB-19, with EKVX, with ACHN and in the assay on SF-268 was > 100 µM (inactive) in each case. Further, the GI50 with LOX IMVI and in the assay with HCC 2998 was > 100 µM (inactive) in each case.
On to `C=CCOC(=O)/C(=C\c1ccc(OC)c(OC)c1)c1ccc(OC)c(OC)c1`, for which the GI50 in the assay on CCRF-CEM was 30.8 µM (inactive); with MCF7 it was 47.2 µM (inactive); with SR it was 22 µM (inactive); with M14 it was > 100 µM (inactive); with SK-MEL-2 it was 47.9 µM (inactive); in the assay on SK-MEL-5, 42.3 µM (inactive). The GI50 was 62.2 µM (inactive) in the assay on CAKI-1; 91.6 µM (inactive) in the assay on Malme-3M; 13.4 µM (inactive) with RPMI-8226; > 100 µM (inactive) in the assay on OVCAR-8; 39.2 µM (inactive) with NCI-H23; 28.1 µM (inactive) in the assay with HT-29. In addition, the GI50 in the assay with DU-145 is > 100 µM (inactive); in the assay on COLO 205, 27.5 µM (inactive); in the assay on SNB-19, 59 µM (inactive); with EKVX, 88.5 µM (inactive); in the assay with ACHN, 56.2 µM (inactive); in the assay on SF-268, 52.7 µM (inactive). Moreover, the GI50 in the assay on LOX IMVI was > 10 µM (inactive); in the assay on HCC 2998 it was > 100 µM (inactive).
Regarding `C[C@@H]1C(=O)C[C@H]2C(C)(C)CCC[C@]2(C)[C@@]1(O)CCc1ccoc1`, the GI50 was > 100 µM (inactive) in the assay on CCRF-CEM; > 100 µM (inactive) in the assay with MCF7; 11.5 µM (inactive) in the assay with SR; > 100 µM (inactive) in the assay with M14; > 100 µM (inactive) in the assay with SK-MEL-2; > 100 µM (inactive) with SK-MEL-5. Besides, the GI50 with CAKI-1 is > 100 µM (inactive); in the assay with Malme-3M, > 100 µM (inactive); with RPMI-8226 it was 84.3 µM (inactive); in the assay on OVCAR-8, > 100 µM (inactive); with NCI-H23, > 100 µM (inactive); in the assay with HT-29, > 100 µM (inactive). The GI50 in the assay on DU-145 was > 100 µM (inactive); with COLO 205 it was > 100 µM (inactive); with SNB-19, > 100 µM (inactive); in the assay with EKVX, > 100 µM (inactive); in the assay with ACHN, > 100 µM (inactive); with SF-268, 96.4 µM (inactive). In addition, the GI50 with LOX IMVI and with HCC 2998 was > 100 µM (inactive) throughout.
On to `COc1cccc(NC(=O)CC(=O)N2N=C(C)C(/N=N/c3ccc(S(=O)(=O)CCOS(=O)(=O)O)cc3)C2=O)c1` (stereo not drawn), for which the GI50 in the assay on CCRF-CEM is 2.62 µM (inactive); in the assay with MCF7, 2.09 µM (inactive); with SR, 1.45 µM (inactive); in the assay with M14, 5.83 µM (inactive); with SK-MEL-2, 2.04 µM (inactive); in the assay with SK-MEL-5 it was 3.52 µM (inactive). Further, the GI50 in the assay with CAKI-1 is 2.45 µM (inactive); in the assay on Malme-3M, 11.1 µM (inactive); with RPMI-8226, 2.75 µM (inactive); in the assay with OVCAR-8, 3.18 µM (inactive); in the assay with NCI-H23 it was 4.69 µM (inactive); in the assay on HT-29, 3.76 µM (inactive). The GI50 with DU-145 is 14.8 µM (inactive); in the assay on COLO 205, 7.1 µM (inactive); in the assay on SNB-19, 17 µM (inactive); in the assay on EKVX, 17.7 µM (inactive); in the assay with ACHN it was 3.99 µM (inactive); with SF-268, 7.82 µM (inactive). Besides, the values for the GI50 in the assay on LOX IMVI and with HCC 2998 were 1.5 µM (inactive) and 15.5 µM (inactive), respectively.
Regarding `NCCCN1CCN(CCCNc2ccc3ncn4c5ccccc5c(=O)c2c34)CC1`, the GI50 in the assay with CCRF-CEM was 1.41 µM (inactive); in the assay on MCF7, 1.32 µM (inactive); with SR it was 1.21 µM (inactive); with M14, 2.79 µM (inactive); with SK-MEL-2, 2.8 µM (inactive); in the assay with SK-MEL-5, 0.791 µM (active). In addition, the GI50 in the assay on CAKI-1 was 1.14 µM (inactive); in the assay on Malme-3M it was 2.36 µM (inactive); in the assay with RPMI-8226, 1.52 µM (inactive); in the assay on OVCAR-8, 1.87 µM (inactive); in the assay with NCI-H23, 2.51 µM (inactive); in the assay on HT-29, 1.13 µM (inactive). The GI50 in the assay on DU-145 was 1.46 µM (inactive); in the assay on COLO 205, 0.481 µM (active); in the assay on SNB-19, 0.887 µM (active); in the assay with EKVX, 2.85 µM (inactive); in the assay on ACHN, 1.49 µM (inactive); in the assay with SF-268, 1.26 µM (inactive). The GI50 is 0.875 µM (active) with LOX IMVI and 0.789 µM (active) in the assay with HCC 2998.
As to `CC(C)N(CCCNc1c2ccccc2nc2cccc([N+](=O)[O-])c12)C(C)C`, the GI50 with CCRF-CEM is < 0.0173 µM (active); in the assay on MCF7, 0.0114 µM (active); in the assay with SR, < 0.01 µM (active); in the assay on M14, 0.0125 µM (active); with SK-MEL-2, 0.0473 µM (active); with SK-MEL-5, < 0.01 µM (active). The GI50 with CAKI-1 was < 0.0418 µM (active); with Malme-3M, < 0.0214 µM (active); in the assay on RPMI-8226, < 0.01 µM (active); with OVCAR-8, < 0.0167 µM (active); in the assay on NCI-H23, < 0.0108 µM (active); with HT-29, < 0.01 µM (active). The GI50 in the assay on DU-145 is < 0.01 µM (active); in the assay with COLO 205 it was 0.0101 µM (active); in the assay with SNB-19 it was < 0.0224 µM (active); in the assay on EKVX, < 0.015 µM (active); with ACHN, < 0.0126 µM (active); in the assay on SF-268, < 0.0224 µM (active). Also, the GI50 in the assay with LOX IMVI is < 0.0206 µM (active); in the assay with HCC 2998, < 0.01 µM (active).
As for `CC(=O)Nc1sccc1S(=O)(=O)c1ccc(Cl)cc1`, the GI50 in the assay on CCRF-CEM, in the assay with MCF7, in the assay on SR, in the assay on M14, in the assay with SK-MEL-2 and in the assay with SK-MEL-5 was > 100 µM (inactive) in each case. The GI50 in the assay with CAKI-1, with Malme-3M, in the assay with RPMI-8226, with OVCAR-8, with NCI-H23 and with HT-29 was > 100 µM (inactive) throughout. In addition, the GI50 with DU-145, with COLO 205, in the assay on SNB-19, in the assay on EKVX, in the assay on ACHN and in the assay with SF-268 was > 100 µM (inactive) in each case. In addition, the GI50 in the assay on HCC 2998 is > 100 µM (inactive).
In the case of `O=C(O)c1ccc(Nc2nc3ccccc3nc2C(=O)O)cc1`, the GI50 with CCRF-CEM, in the assay on MCF7, with SR, with M14, with SK-MEL-2 and with SK-MEL-5 was > 100 µM (inactive) in each case. In addition, the GI50 in the assay with CAKI-1, in the assay on Malme-3M, in the assay on RPMI-8226, in the assay with OVCAR-8, with NCI-H23 and in the assay with HT-29 was > 100 µM (inactive) each time. For the same molecule, the GI50 in the assay on DU-145, in the assay on COLO 205, in the assay on SNB-19, in the assay on EKVX, in the assay on ACHN and in the assay with SF-268 was > 100 µM (inactive) throughout. The GI50 in the assay with HCC 2998 is > 100 µM (inactive).
Consider `COC(=O)[C@H](Cc1ccc(O)c(Br)c1)NC(=O)[C@H](Cc1ccc(O)cc1)NC(=O)OC(C)(C)C` (Boc-Tyr-[Tyr(3-Br)]-OMe), for which the GI50 with CCRF-CEM was 23.8 µM (inactive); in the assay with MCF7, 31.3 µM (inactive); with SR, 44.6 µM (inactive); in the assay with M14 it was 33.1 µM (inactive); in the assay with SK-MEL-2 it was 37 µM (inactive); in the assay with CAKI-1, > 100 µM (inactive). The GI50 with Malme-3M was 24.5 µM (inactive); with RPMI-8226, 28.4 µM (inactive); with OVCAR-8 it was 19.9 µM (inactive); in the assay on NCI-H23 it was 27.4 µM (inactive); with HT-29 it was 37.7 µM (inactive); in the assay on DU-145, 61.9 µM (inactive). Also, the GI50 in the assay on COLO 205 was 39.9 µM (inactive); with SNB-19 it was > 100 µM (inactive); in the assay on EKVX, > 100 µM (inactive); with ACHN, 37.3 µM (inactive); in the assay with SF-268 it was 48.3 µM (inactive); with LOX IMVI, 22.5 µM (inactive). Moreover, in the assay on HCC 2998, the GI50 was 31.6 µM (inactive).
On to `CC1CCC2(C(=O)O)CCC3(C)C(=CCC4C5(C)CCC(O)C(C)(C)C5CCC43C)C2C1C` (stereo not drawn), for which the GI50 is 12.7 µM (inactive) and 22 µM (inactive) with MCF7; 19.5 µM (inactive) in the assay on SR; 2.16 µM (inactive) in the assay with M14; 11.2 µM (inactive) and 15.9 µM (inactive) with SK-MEL-2; 6 µM (inactive) and 3.7 µM (inactive) in the assay with CAKI-1; 15.1 µM (inactive) and 14 µM (inactive) in the assay with Malme-3M. The GI50 in the assay on RPMI-8226 was 10.6 µM (inactive) and 7.1 µM (inactive); in the assay on OVCAR-8, 13.8 µM (inactive) and 8.3 µM (inactive); in the assay with NCI-H23, 18.5 µM (inactive) and 11.9 µM (inactive); in the assay with HT-29 it was 20.7 µM (inactive) and 11 µM (inactive); in the assay on DU-145 it was 9.16 µM (inactive); in the assay with COLO 205 it was 13.7 µM (inactive) and 14.7 µM (inactive). The GI50 was 10.3 µM (inactive) with SNB-19; 10.6 µM (inactive) and 13.8 µM (inactive) in the assay with EKVX; 4.13 µM (inactive) and 6.59 µM (inactive) with LOX IMVI; 11.1 µM (inactive) and 10.6 µM (inactive) with HCC 2998.

The GI50 is the concentration that inhibits growth by half.

Values taken from ChEMBL document CHEMBL1201862, “PubChem BioAssay data set” (2004).
